For one experiment, the target named is T1, human MER (528-end) (Homo sapiens, UniProt Q12866).
T1 construct: human MER (528-end); purchased Camnabio, Japan
T1 sequence (Q12866 528-999 limits assumed): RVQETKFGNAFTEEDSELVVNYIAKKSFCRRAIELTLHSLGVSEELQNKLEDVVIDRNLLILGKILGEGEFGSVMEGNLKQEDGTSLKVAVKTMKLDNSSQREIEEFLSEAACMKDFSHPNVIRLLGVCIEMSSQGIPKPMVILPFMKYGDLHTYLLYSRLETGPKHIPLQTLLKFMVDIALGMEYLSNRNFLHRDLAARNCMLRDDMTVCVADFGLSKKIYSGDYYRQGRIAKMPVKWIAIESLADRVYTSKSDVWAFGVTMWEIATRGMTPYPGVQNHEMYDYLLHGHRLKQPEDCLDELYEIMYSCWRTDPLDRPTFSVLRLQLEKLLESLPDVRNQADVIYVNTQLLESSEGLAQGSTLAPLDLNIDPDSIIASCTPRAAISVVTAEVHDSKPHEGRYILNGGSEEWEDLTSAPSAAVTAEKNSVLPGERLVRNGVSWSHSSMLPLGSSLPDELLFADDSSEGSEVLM
In words: HTRF kinase activity biochemical assay, MER. The settings on record: 10 μM ATP, 30 minutes pre-incubation; read-out: HTRF MERTK IC50. (Time-resolved FRET reads energy transfer from a long-lived donor to a nearby acceptor.)

For another experiment, the target named is T2, human AXL (473-end) (Homo sapiens, UniProt P30530).
T2 construct: human AXL (473-end); purchased SignalChem, Canada
T2 sequence (P30530 473-894 limits assumed): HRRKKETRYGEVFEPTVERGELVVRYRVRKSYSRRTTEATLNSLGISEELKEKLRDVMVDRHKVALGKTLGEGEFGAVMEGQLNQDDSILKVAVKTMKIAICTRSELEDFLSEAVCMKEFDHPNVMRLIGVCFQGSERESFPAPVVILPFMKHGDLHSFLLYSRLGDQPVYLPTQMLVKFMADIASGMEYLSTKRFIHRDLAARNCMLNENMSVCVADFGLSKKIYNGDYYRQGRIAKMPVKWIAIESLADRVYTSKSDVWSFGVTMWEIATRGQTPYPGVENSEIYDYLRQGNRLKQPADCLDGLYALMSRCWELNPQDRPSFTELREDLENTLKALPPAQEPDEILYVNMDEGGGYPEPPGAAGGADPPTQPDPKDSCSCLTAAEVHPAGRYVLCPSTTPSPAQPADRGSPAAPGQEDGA
Description: HTRF kinase activity biochemical assay, AXL. The settings on record: 10 μM ATP, 30 minutes pre-incubation.

A further experiment has as its target T3, human TYRO3 (455-end) (Homo sapiens, UniProt Q06418).
T3 construct: TYRO3 (455-end); purchased SignalChem, Canada
T3 sequence (Q06418 455-890 limits assumed): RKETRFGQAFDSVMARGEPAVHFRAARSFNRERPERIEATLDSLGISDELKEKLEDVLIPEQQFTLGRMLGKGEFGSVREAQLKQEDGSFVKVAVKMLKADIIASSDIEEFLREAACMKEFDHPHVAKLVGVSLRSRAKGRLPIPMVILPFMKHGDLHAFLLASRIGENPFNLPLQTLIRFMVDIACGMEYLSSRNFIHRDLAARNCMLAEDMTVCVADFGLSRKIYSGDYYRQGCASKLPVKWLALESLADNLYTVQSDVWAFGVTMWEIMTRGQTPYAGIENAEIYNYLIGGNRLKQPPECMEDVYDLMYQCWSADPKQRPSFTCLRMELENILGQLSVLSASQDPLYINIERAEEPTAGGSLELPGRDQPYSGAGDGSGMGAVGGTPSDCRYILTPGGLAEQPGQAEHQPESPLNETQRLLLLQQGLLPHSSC
Description: HTRF kinase activity biochemical assay, TYRO3. The settings on record: 10 μM ATP, 30 minutes pre-incubation; read-out: HTRF TYRO IC50.

Bounds are passed on as bounds.

As a reminder, the IC50 is the point on the concentration scale where inhibition reaches its midpoint.

With `Cn1cc(-c2cnc(N)c(C(=O)N[C@H]3CCC[C@@H]3OCc3ccc(-c4ccc5c(c4)CC(F)(F)C5N4CCN(CC(O)CO)CC4)cc3)c2)cn1` (mixture of isomers) [Example 59, 2-amino-N-{(1S,2S)-2-[(4-{1-[4-(2,3-dihydroxypropyl)piperazin-1-yl]-2,2-difluoro-2,3-dihydro-1H-inden-5-yl}phenyl)methoxy]cyclopentyl}-5-(1-methyl-1H-pyrazol-4-yl)pyridine-3-carboxamide], the IC50 was below 10 nM at human MER (528-end), below 10 nM on human AXL (473-end) and 100 to 1000 nM on human TYRO3 (455-end).

For the molecule `Nc1ncc(-c2ccc(F)nc2)cc1C(=O)N[C@H]1CCC[C@@H]1OCc1ccc(-c2ccc3c(c2)CC(F)(F)C3N2CCN(CC(O)CO)CC2)cc1` (stereo partly drawn) [Example 62, 6-amino-N-{(1S,2S)-2-[(4-{1-[4-(2,3-dihydroxypropyl)piperazin-1-yl]-2,2-difluoro-2,3-dihydro-1H-inden-5-yl}phenyl)methoxy]cyclopentyl}-6′-fluoro[3,3′-bipyridine]-5-carboxamide], the IC50 on human MER (528-end) was below 10 nM; on human AXL (473-end), below 10 nM; on human TYRO3 (455-end), above 1000 nM.

On to `Cn1ccc(-c2cnc(N)c(C(=O)N[C@H]3CCC[C@@H]3OCc3ccc(-c4ccc5c(c4)CC(F)(F)C5N4CCN(CC(O)CO)CC4)cc3)c2)cc1=O` (stereo partly drawn) [Example 63, 6-amino-N-{(1S,2S)-2-[(4-{1-[4-(2,3-dihydroxypropyl)piperazin-1-yl]-2,2-difluoro-2,3-dihydro-1H-inden-5-yl}phenyl)methoxy]cyclopentyl}-1′-methyl-2′-oxo-1′,2′-dihydro[3,4′-bipyridine]-5-carboxamide], for which the IC50 on human MER (528-end) was below 10 nM; at human AXL (473-end) it was below 10 nM; on human TYRO3 (455-end) it was 100 to 1000 nM.

In the case of `Cn1cc(-c2cnc(N)c(C(=O)N[C@H]3COC[C@@H]3OCc3ccc(-c4ccc5c(ccn5C5CCN(CCO)CC5)c4)cc3)c2)cn1` [Example 14, 2-amino-N-{(3S,4R)-4-[(4-{1-[1-(2-hydroxyethyl)piperidin-4-yl]-1H-indol-5-yl}phenyl)methoxy]oxolan-3-yl}-5-(1-methyl-1H-pyrazol-4-yl)pyridine-3-carboxamide], the half-maximal inhibitory concentration (IC50) on human MER (528-end) was below 10 nM; at human AXL (473-end), 10 to 100 nM; at human TYRO3 (455-end), above 1000 nM.

As to `CN1CCC(N2CC(C)(C)c3cc(-c4ccc(CO[C@H]5CCC[C@@H]5NC(=O)c5cc(-c6cnn(C)c6)cnc5N)cc4)ccc32)CC1` [Example 12, 2-amino-N-[(1S,2S)-2-({4-[3,3-dimethyl-1-(1-methylpiperidin-4-yl)-2,3-dihydro-1H-indol-5-yl]phenyl}methoxy)cyclopentyl]-5-(1-methyl-1H-pyrazol-4-yl)pyridine-3-carboxamide], the figures for the half-inhibitory concentration (IC50) at human MER (528-end), at human AXL (473-end) and at human TYRO3 (455-end) were below 10 nM, below 10 nM and 10 to 100 nM, respectively.

Consider `Cc1cn(C2CCN(CCO)CC2)c2ncc(-c3ccc(CO[C@H]4CCC[C@@H]4NC(=O)c4cc(-c5cnn(C)c5)cnc4N)cc3)cc12` [Example 110, 2-amino-N-{(1S,2S)-2-[(4-{1-[1-(2-hydroxyethyl)piperidin-4-yl]-3-methyl-1H-pyrrolo[2,3-b]pyridin-5-yl}phenyl)methoxy]cyclopentyl}-5-(1-methyl-1H-pyrazol-4-yl)pyridine-3-carboxamide], for which the IC50 at human MER (528-end) is below 10 nM; on human AXL (473-end), below 10 nM; at human TYRO3 (455-end) it was 100 to 1000 nM.

For the molecule `Cc1cc(-c2cnc(N)c(C(=O)N[C@H]3CCC[C@@H]3OCc3ccc(-c4ccc5c(c4)CC[C@@H]5N4CCN(CCO)CC4)cc3)c2)sn1` [Example 175, 2-amino-N-{(1S,2S)-2-[(4-{(1S)-1-[4-(2-hydroxyethyl)piperazin-1-yl]-2,3-dihydro-1H-inden-5-yl}phenyl)methoxy]cyclopentyl}-5-(3-methyl-1,2-thiazol-5-yl)pyridine-3-carboxamide], the IC50 was below 10 nM on human MER (528-end), below 10 nM against human AXL (473-end) and 10 to 100 nM at human TYRO3 (455-end).

The values above are taken from patent publication US20260146035A1, “FUSED BICYCLIC COMPOUNDS AND THEIR USE AS MER AND AXL INHIBITORS” (DONG-A ST CO., LTD., priority 2022, published 2026).
